“And” between values parts separate entries of the source, which are not always exact repeats. Identical values can stand only once. Marks after values point to notes of the source that are not given here. Blank lines part the entries; values can stand above or below the compound they belong to.
Tests used:
[1] = test system: acetic acid induced chronic gastric ulcer; experiment: Acetic acid induced chronic gastric ulcer in rats; format: in vivo, rat
Procedure: In our experiments the method […] of Okabe et al was used. Male Wistar rats of 150-170 g were narcotize part of the stomach.
The test compound was given p.o. on the fifth day after the operation for seven days. The animals were euthanized with ether after 24 hours of the last dose and the abdomen was macroscopically examined (exravasation, accretion), the stomach was excised and the diameters of ulcers were measured.

[2] = test system: carrageenan induced paw oedema; experiment: Inhibition of carrageenan induced oedema in rats; format: in vivo, rat; conditions: for ED30: p.o.
Procedure: The treated paw was immersed up to the tibio-tarsal articulation into the chamber and the volume of displaced liquid was determined as the degree of the inflammation. Degree of inflammation (ml)=volume after the CARR treatment (ml)−volume before the CARR treatment (ml)
The degree of the anti-inflammatory effect of the treated group (which obtained test agent) was compared to that of the control group (which obtained only vehicle). The test compound and the vehicle were given orally by blunt-ended needle cannula one hour before the CARR treatment. The volume of the treated paw was measured at 3 and 5 hours after the CARR treatment and the change in the degree of inflammation in % was calculated according to the following formula: Anti-inflammatory activity %=100×[control group (ml)−treated group (ml)/control group (ml)]
[…] Anti-inflammatory activity of the compounds was determined in % at 4 and 6 hours after p.o. treatment and ED30 was calculated.

[3] = test system: carrageenan induced acute hyperalgesia; experiment: Carrageenan induced acute hyperalgesia in rats (Randall-Selitto model); format: in vivo, rat
Procedure: (§1) Oedema (inflammation) was induced by subcutaneous injection of carrageenan (CARR) suspension in the subplantar region of the right hind paw of male Wistar rats, weighted 140-190 g (n=8-12 animal/group). The nociceptive thresholds of the inflamed hind paw after painful mechanical stimuli were measured with analgesimeter (Ugo Basile, type: 37215, Italy). The apparatus is suitable for the measuring of the extent and the latency of the pain reaction threshold of the sensitized paw after painful stimuli. The analgesics elevate the low pain reaction threshold of inflamed paw and the degree of its antinociceptive effect is expressed in reversal %.
(§2) An increasing pressure was applied to the paw and the withdrawal threshold was determined as the first sign (squeaking and/or struggling) of pain response. The pressure threshold was shown in grams. The average value of the hind paw withdrawal obtained with untreated right paw was regarded as the basal hind paw withdrawal (average 80-110 grams.) After determining the baseline threshold the animals received carrageenan injection that produced an intense inflammation associated with hyperalgesia. The mechanical threshold was determined at various times to establish the magnitude and duration of the hyperalgesia. The maximum reduction in threshold was measured 2-3 h after injection (the pain threshold of the inflamed paw is 20-30 g, which was decreased by 65-80% in comparing to the basic value).
(§3) Acute hvneralgesia model: the animals were treated with the test compounds and celecoxib (10 and 30 mg/kg p.o.) one hour after CARR treatment (100 μl 2% suspension). Pain threshold was measured at 2 and 4 hours after the treatment. Chronic hyperalgesia model: extended inflammation and decreased pain threshold were induced with higher dose of CARR. Pain threshold of inflamed paw was measured 24 hours after CARR treatment (150 μl, 2% suspension) then test compound and Celecoxib (30 mg/kg p.o.) were given to the animals. Pain threshold of treated paw was measured from 30 minutes till 3 hours after treatment.
(§4) Control groups in both models after CARR treatment were treated with vehicle p.o. at the same intervals as the test compounds. In both models the analgesic effect of the compounds was expressed in the reversal (%) of the decrease of the pain threshold. Reversal %=[mean of treated groupTxh(g)−treated groupT0h(g)]/[basic mean of treated groupT-1h(g)−treated groupT0h(g)] • T−1 h=mean of the pain threshold of paw before CARR treatment in acute model (g) • T0h=mean of the pain threshold before treatment 1 hour after CARR treatment in acute model (g) • T×h=pain threshold after CARR treatment in the measuring times (1 h, 2 h, 3 h) in acute model (g)

[4] = test system: carrageenan induced chronic hyperalgesia; experiment: Carrageenan induced chronic hyperalgesia model in rats (Randall-Selitto); format: in vivo, rat
[5] = test system: alcohol induced mucosa injury; experiment: Gastric lesions induced by acidified alcohol in rats; format: in vivo, rat; conditions: for Ulcer index: 40 minutes before ethanol+HCl, n = 10
Procedure: Male Wistar rats weighing 140-160 g were treated p.o. with a 1:0.02 mixture of dry ethanol and concentrated HCl (0.5 ml) in order to induce gastric lesions. One hour later the animals were euthanized with ether and the stomach excised along its greater curvature, the mucosa was examined for the presence of lesions.
Severity of lesions: • 1: petechiae or erosion with length of 1 mm • 2: erosion with length between 2 and 3 mm • 3: erosion with length between 3 and 4 mm • 4: erosion with length between 4 and 5 mm
If the lesion was longer than 5 mm, it was scored 4 point as many times as the total length of the lesion divisible by four and the rest of the length was evaluated according to the above scale. The degree of injury of mucosa was characterized by ulcer index. Ulcer index (severity of lesion×number of lesion) was calculated for every animal and the degree of injury of mucosa in the groups of tested animals was characterized by the mean of ulcer index of different groups of animals.
Test compounds were given p.o. 40 minutes before the ethanol+HCl treatment

[6] = test system: carrageenan induced chronic hyperalgesia; experiment: Carrageenan induced chronic hyperalgesia model in rats (Randall-Selitto); format: in vivo, rat; conditions: chronic model, 30 mg/kg p.o.
Procedure: as §1, §2, §3, §4

melting point: 176 to 178 °C
SMILES: Cc1ccc(-c2cc(C(F)(F)F)nn2-c2ccc(S(=O)(=O)NOCCC(=O)O)cc2)cc1 [Example 9, 3-[4-(5-p-methylphenyl-3-trifluoromethyl-pyrazol-1-yl)-benzenesulfonylaminooxy]-propionic acid]

melting point: 224 to 225 °C
SMILES: Cc1ccc(-c2cc(C(F)(F)F)nn2-c2ccc(S(=O)(=O)NOCC(=O)O)cc2)cc1 [Example 7, [4-(5-p-methylphenyl-3-trifluoromethyl-pyrazol-1-yl)-benzenesulfonylaminooxy]-acetic acid]

melting point: 134 to 136 °C
SMILES: Cc1ccc(-c2cc(C(F)(F)F)nn2-c2ccc(S(=O)(=O)NOC(=O)C(C)(C)C)cc2)cc1 [Example 13, N-pivaloyloxy-4-(5-p-methylphenyl-3-trifluoromethyl-pyrazol-1-yl)-benzenesulfonamide]

The next lines start with the compound.

SMILES: CCOC(=O)CONS(=O)(=O)c1ccc(-n2nc(C(F)(F)F)cc2-c2ccc(C)cc2)cc1 [Example 8, [4-(5-p-methylphenyl-3-trifluoromethyl-pyrazol-1-yl)-benzenesulfonylaminooxy]-acetic acid ethyl ester]
melting point: 143 to 144 °C

SMILES: COc1ccc2c(c1)c(CC(=O)O)c(C)n2C(=O)c1ccc(Cl)cc1 [Indometacin]
Area of ulcer (mm^2) ([1]; 2.0 mg/kg p.o. for seven days): 39.0 ± 5** mm^2 | Change of bodyweight (g) + (increase) − (decrease) ([1]; 2.0 mg/kg p.o. for seven days): +2 ± 0.6 g

SMILES: Cc1ccc(-c2cc(C(F)(F)F)nn2-c2ccc(S(=O)(=O)NOC(C)C(=O)[O-])cc2)cc1.[Na+] (racemic) [Example 6, Disodium (R,S)-2-[4-(5-p-methylphenyl-3-trifluoromethyl-pyrazol-1-yl)-benzenesulfonyl-aminooxy]-propionic acid monohydrate]
anti-inflammatory activity compared with celecoxib ([2]; CARR induced oedema test): significantly (p<0.05) higher

SMILES: Cc1ccc(-c2cc(C(F)(F)F)nn2-c2ccc(S(N)(=O)=O)cc2)cc1 [Celecoxib, reference compound]
Analgesic effect (reversal %) after p.o. treatment ([3]; 10 mg/kg p.o., 1 hour): 0% | Analgesic effect (reversal %) after p.o. treatment ([3]; 10 mg/kg p.o., 2 hour): 0% | Analgesic effect (reversal %) after p.o. treatment ([3]; 10 mg/kg p.o., 3 hour): 0% | Analgesic effect (reversal %) after p.o. treatment ([3]; 30 mg/kg p.o., 1 hour): 24% | Analgesic effect (reversal %) after p.o. treatment ([3]; 30 mg/kg p.o., 2 hour): 3% | Analgesic effect (reversal %) after p.o. treatment ([3]; 30 mg/kg p.o., 3 hour): 0% | analgesic effect, reversal ([3]; 30 mg/kg p.o., time not stated): 24% | Inhibiton of carrageenan induced edema % ([2]; 3 mg/kg p.o., 4 hours after treatment): 16 ± 3% | Inhibiton of carrageenan induced edema % ([2]; 3 mg/kg p.o., 6 hours after treatment): 12 ± 4% | Inhibiton of carrageenan induced edema % ([2]; 10 mg/kg p.o., 4 hours after treatment): 24 ± 4% | Inhibiton of carrageenan induced edema % ([2]; 10 mg/kg p.o., 6 hours after treatment): 18 ± 2% | Inhibiton of carrageenan induced edema % ([2]; 30 mg/kg p.o., 4 hours after treatment): 32 ± 5% | Inhibiton of carrageenan induced edema % ([2]; 30 mg/kg p.o., 6 hours after treatment): 26 ± 4% | anti-inflammatory activity as compared to the control group ([2]; 6 hours after the treatment): less than 30% | ED30 ([2]; 4 hours after treatment): 23 mg/kg and 23.0 mg/kg | ED30 ([2]; 6 hours after treatment): >30 mg/kg | Area of ulcer (mm^2) ([1]; 30 mg/kg p.o. for seven days): 8.2 ± 2.0* mm^2 | Change of bodyweight (g) + (increase) − (decrease) ([1]; 30 mg/kg p.o. for seven days): +32 ± 4 g | Recovery of acetic acid induced ulcer ([1]; p.o. for seven days): inhibited significantly | Analgesic effect (reversal %) after p.o. treatment ([4]; 10 mg/kg p.o., 30 min): 24% | Analgesic effect (reversal %) after p.o. treatment ([4]; 10 mg/kg p.o., 1 hour): 17% | Analgesic effect (reversal %) after p.o. treatment ([4]; 10 mg/kg p.o., 2 hour): 0% | Analgesic effect (reversal %) after p.o. treatment ([4]; 30 mg/kg p.o., 4 hour): 20% | Ulcer index ([5]; 15 mg/kg p.o.): 80.6 ± 2.3 | Ulcer index ([5]; 30 mg/kg p.o.): 49.4 ± 4.5 | Ulcer index ([5]; 60 mg/kg p.o.): 44.4 ± 6.4 | effect on alcohol induced mucosa injury ([5]; p.o.): inhibited the alcohol induced mucosa injury | Analgesic effect (reversal %) after p.o. treatment ([6]; 30 min): 54% | Analgesic effect (reversal %) after p.o. treatment ([6]; 1 hour): 34% | Analgesic effect (reversal %) after p.o. treatment ([6]; 2 hour): 34% | Analgesic effect (reversal %) after p.o. treatment ([6]; 3 hour): 26% | analgesic effect, reversal ([6]; time not stated): 54%

SMILES: Cc1ccc(-c2cc(C(F)(F)F)nn2-c2ccc(S(=O)(=O)NOC(=O)c3ccccc3)cc2)cc1 [Example 12, N-benzoyloxy-4-(5-p-methylphenyl-3-trifluoromethyl-pyrazol-1-yl)-benzenesulfonamide]
melting point: 152 to 155 °C

SMILES: CC(=O)ONS(=O)(=O)c1ccc(-n2nc(C(F)(F)F)cc2-c2ccc(C)cc2)cc1 [Example 11, N-acetoxy-4-(5-p-methylphenyl-3-trifluoromethyl-pyrazol-1-yl)-benzenesulamide]
melting point: 138 to 140 °C

SMILES: CCOC(=O)C(C)ONS(=O)(=O)c1ccc(-n2nc(C(F)(F)F)cc2-c2ccc(C)cc2)cc1 (stereo not drawn) [Example 10, 2-[4-(5-p-methylphenyl-3-trifluoromethyl-pyrazol-1-yl)-benzenesulfonylaminooxy]-propionic acid ethyl ester]
melting point: 137 to 138 °C

From US7723370B2, “1, 2-diaryl pyrazoles useful as analgetic and antiinflammatory agents” (Richter Gedeon Vegyeszeti Gyar RT., priority 2005, dated 2010)
